Source: patent publication US9150581B2, “Nicotinic receptor compounds” (priority 2011, dated 2015)

Tests used:
mice [1] = assay: Hypothermia (rectal temperature); type: in vivo, mouse; settings: sc
Experimental: (§1) Interruptions of the photocell beams (two banks of eight cells each) were then recorded for the next 10 min. Data were expressed as number of photocell interruptions. Rectal temperature was measured by a thermistor probe (inserted 24 mm) and digital thermometer (Yellow Springs Instrument Co., Yellow Springs, Ohio). […] The difference in rectal temperature before and after treatment was calculated for each mouse. The ambient temperature of the laboratory varied from 21 to 24° C. from day to day.

mice [2] = assay: Tail-flick test (antinociception); type: in vivo, mouse; settings: sc
Experimental: (§2) In the tail-flick method of D'Amour and Smith, (D'Amour, F. E.; Smith, D. L. J. Pharmacol. Exp. Ther. 1941, 72, 74-79), the tail is exposed to a heat lamp and the amount of time taken for the animal to move (flick) its tail away from the heat is recorded. […] Mice were placed into a 10-cm wide glass cylinder on a hot plate (Thermojust Apparatus) maintained at 55.0° C. Two control latencies at least 10 min apart were determined for each mouse. […] The reaction time was scored when the animal jumped or licked its paws. The mice were tested 5 min after subcutaneous (sc) injections of nicotinic ligands for the dose-response determination. Antinociceptive response was calculated as percentage of maximum possible effect (% MPE, where % MPE=[(test−control)/(maximum latency−control)×100]).

α7 nAChR = α7 nAChR (Rattus norvegicus (Rat), UniProt Q05941); type: binding; settings: read-out: α7 [125I]iodoMLA (Ki)
mice [3] = assay: Spontaneous activity (photocell activity cages); type: in vivo, mouse; settings: sc
Experimental: as §1

mice [4] = assay: Antagonism of nicotine antinociception, tail-flick; type: in vivo, mouse
Experimental: as §2
(§3) Nicotine was administered at a dose of 2.5 mg/kg, sc (an ED84 dose), and mice were tested 5 min later. ED50 and AD50 values with 95% confidence limits were determined.

mice [5] = assay: Hot-plate test (antinociception); type: in vivo, mouse; settings: sc
Experimental: as §2

α4β2 nAChR = α4β2 nAChR (Rattus norvegicus (Rat), UniProt P09483+P12390); assay: Inhibition of [3H]epibatidine binding at the α4β2 nAChR in male rat cerebral cortex; settings: read-out: αβ [3H]Epibatidine (Ki)
mice [6] = assay: Antagonism of nicotine antinociception, hot-plate; type: in vivo, mouse; settings: before nicotine 2.5 mg/kg sc
Experimental: as §2, §3

Chain of α7 nAChR (Q05941 23-502 limits assumed): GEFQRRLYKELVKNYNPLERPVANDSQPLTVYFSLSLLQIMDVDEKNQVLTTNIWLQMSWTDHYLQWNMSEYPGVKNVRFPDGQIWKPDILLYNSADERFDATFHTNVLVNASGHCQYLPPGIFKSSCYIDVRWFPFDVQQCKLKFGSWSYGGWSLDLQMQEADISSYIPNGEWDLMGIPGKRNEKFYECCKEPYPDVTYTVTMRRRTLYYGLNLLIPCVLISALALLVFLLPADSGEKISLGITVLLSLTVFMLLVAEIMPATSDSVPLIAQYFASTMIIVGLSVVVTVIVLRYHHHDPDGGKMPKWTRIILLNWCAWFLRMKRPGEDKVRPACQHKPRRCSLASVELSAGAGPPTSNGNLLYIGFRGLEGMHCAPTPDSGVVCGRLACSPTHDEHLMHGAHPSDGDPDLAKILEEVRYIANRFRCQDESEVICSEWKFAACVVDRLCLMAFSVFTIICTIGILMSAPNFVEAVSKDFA
Chain of α4β2 nAChR (P09483 31-630 limits assumed): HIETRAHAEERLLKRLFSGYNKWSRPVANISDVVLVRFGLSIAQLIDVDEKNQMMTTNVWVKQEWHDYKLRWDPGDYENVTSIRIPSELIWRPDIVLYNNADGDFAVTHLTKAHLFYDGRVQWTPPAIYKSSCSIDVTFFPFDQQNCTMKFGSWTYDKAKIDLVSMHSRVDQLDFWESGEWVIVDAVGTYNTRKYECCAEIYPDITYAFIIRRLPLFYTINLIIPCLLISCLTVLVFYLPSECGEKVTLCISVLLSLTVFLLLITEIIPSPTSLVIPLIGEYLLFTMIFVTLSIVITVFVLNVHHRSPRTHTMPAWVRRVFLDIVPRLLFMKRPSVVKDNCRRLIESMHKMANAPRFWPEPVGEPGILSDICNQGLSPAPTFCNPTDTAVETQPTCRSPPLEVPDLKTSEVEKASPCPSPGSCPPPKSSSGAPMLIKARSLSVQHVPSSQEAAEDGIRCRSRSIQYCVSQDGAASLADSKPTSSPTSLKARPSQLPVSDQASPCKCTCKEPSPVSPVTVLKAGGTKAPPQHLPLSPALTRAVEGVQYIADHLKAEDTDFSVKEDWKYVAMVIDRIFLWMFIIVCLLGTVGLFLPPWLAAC
Chain of α4β2 nAChR (P12390 25-500 limits assumed): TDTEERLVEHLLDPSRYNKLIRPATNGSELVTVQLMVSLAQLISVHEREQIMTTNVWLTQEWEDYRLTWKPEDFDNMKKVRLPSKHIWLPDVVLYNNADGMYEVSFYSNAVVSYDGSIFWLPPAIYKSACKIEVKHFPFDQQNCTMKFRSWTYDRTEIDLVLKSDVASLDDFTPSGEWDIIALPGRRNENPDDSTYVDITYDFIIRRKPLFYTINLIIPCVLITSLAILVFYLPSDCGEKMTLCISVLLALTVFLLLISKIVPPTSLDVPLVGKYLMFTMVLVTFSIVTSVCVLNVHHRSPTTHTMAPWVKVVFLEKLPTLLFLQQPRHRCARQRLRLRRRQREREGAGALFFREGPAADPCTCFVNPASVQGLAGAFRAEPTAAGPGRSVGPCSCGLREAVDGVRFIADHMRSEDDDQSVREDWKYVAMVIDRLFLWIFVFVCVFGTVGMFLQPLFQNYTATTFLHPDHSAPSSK

Substance | ED50 Hypothermia (mice [1]) [mg/kg] | ED50 Tail-Flick (mice [2]; tested 5 min after injection) [mg/kg] | Ki (α7 nAChR) [nM] | ED50 Spontaneous Activity (mice [3]) [mg/kg] | Antagonism Tail-Flick, % at dose (mice [4]; @ 500 μg/kg, before nicotine 2.5 mg/kg sc) [% @ 500] | ED50 Hot-Plate (mice [5]; tested 5 min after injection) [mg/kg] | Ki (α4β2 nAChR) [nM] | Antagonism Hot-Plate, % at dose (mice [6]; @ 500 μg/kg) [% @] | Tail-Flick, % effect at dose (mice [2]; @ 10 mg/kg) [% @ 10] | AD50 Tail-Flick (mice [4]; mice pretreated sc 10 min before nicotine 2.5 mg/kg sc) [mg/kg] | Hot-Plate, % effect at dose (mice [5]; @ 10 mg/kg) [% @ 10] | Antagonism Hot-Plate, % at dose (mice [6]; @ 2000 μg/kg) [% @]
2-exo-2-Fluoro-3-(3′-benzamide)deschloroepibatidine Hydrochloride [RTI-7527-169] | 1.7 | 5.6 | 870 | 1 | 10 | 3.6 | 0.36 ± 0.088 | 20 | – | – | – | –
2-exo-2-Fluoro-3-(4′-benzamide)deschloroepibatidine Hydrochloride [RTI-7527-168] | 4.2 | – | 1870 | 3.5 | – | – | 0.12 ± 0.021 | – | 16 | 0.009 | 60 | 1
